Assay results published in PubChem BioAssay AID1918943 (Molecular Pharmacology Branch, DTP, NCI, 2023).

Tested on: 855422-203-R-J1-PDC complex spheroid viability
Test: Anticancer human tumor 855422-203-R-J1-PDC patient-derived bladder carcinoma cell line growth inhibition
Details: for IC50: curve of first compound; for viability, T/C: stronger effect = lower value; active = viability on the fitted dose curve at most 10% of control; inactive = the rest
In short: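 Complex spheroids of tumor cells with HUVEC and human MSCs, exposed to iadademstat combined with other agents. Each agent tested in half-log steps from near clinical Cmax (else 10 microM top), DMSO ≤0.25%.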

[1] = second compound 0.1 µM, first compound 0.0316 µM
[2] = second compound 0.1 µM, first compound 0.1 µM
[3] = second compound 0.1 µM, first compound 0.316 µM
[4] = second compound 0.1 µM, first compound 1 µM
[5] = second compound 0.1 µM, first compound 3.16 µM
[6] = second compound 0.1 µM, first compound 10 µM
[7] = second compound 0.316 µM, first compound 0.0316 µM
[8] = second compound 0.316 µM, first compound 0.1 µM
[9] = second compound 0.316 µM, first compound 0.316 µM
[10] = second compound 0.316 µM, first compound 1 µM
[11] = second compound 0.316 µM, first compound 3.16 µM
[12] = second compound 0.316 µM, first compound 10 µM
[13] = second compound 1 µM, first compound 0.0316 µM
[14] = second compound 1 µM, first compound 0.1 µM
[15] = second compound 1 µM, first compound 0.316 µM
[16] = second compound 1 µM, first compound 1 µM
[17] = second compound 1 µM, first compound 3.16 µM
[18] = second compound 1 µM, first compound 10 µM
[19] = second compound 3.16 µM, first compound 0.0316 µM
[20] = second compound 3.16 µM, first compound 0.1 µM
[21] = second compound 3.16 µM, first compound 0.316 µM
[22] = second compound 3.16 µM, first compound 1 µM
[23] = second compound 3.16 µM, first compound 3.16 µM
[24] = second compound 3.16 µM, first compound 10 µM
[25] = second compound 10 µM, first compound 0.0316 µM
[26] = second compound 10 µM, first compound 0.1 µM
[27] = second compound 10 µM, first compound 0.316 µM
[28] = second compound 10 µM, first compound 1 µM
[29] = second compound 10 µM, first compound 3.16 µM
[30] = second compound 10 µM, first compound 10 µM
[31] = second compound 0.1 µM, first compound 0.00949 µM
[32] = second compound 0.1 µM, first compound 0.03 µM
[33] = second compound 0.1 µM, first compound 0.0949 µM
[34] = second compound 0.1 µM, first compound 0.3 µM
[35] = second compound 0.316 µM, first compound 0.00949 µM
[36] = second compound 0.316 µM, first compound 0.03 µM
[37] = second compound 0.316 µM, first compound 0.0949 µM
[38] = second compound 0.316 µM, first compound 0.3 µM
[39] = second compound 1 µM, first compound 0.00949 µM
[40] = second compound 1 µM, first compound 0.03 µM
[41] = second compound 1 µM, first compound 0.0949 µM
[42] = second compound 1 µM, first compound 0.3 µM
[43] = second compound 3.16 µM, first compound 0.00949 µM
[44] = second compound 3.16 µM, first compound 0.03 µM
[45] = second compound 3.16 µM, first compound 0.0949 µM
[46] = second compound 3.16 µM, first compound 0.3 µM
[47] = second compound 10 µM, first compound 0.00949 µM
[48] = second compound 10 µM, first compound 0.03 µM
[49] = second compound 10 µM, first compound 0.0949 µM
[50] = second compound 10 µM, first compound 0.3 µM
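Note: drug exposure lasted 7 days starting on day 3 after seeding.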
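Throughout, for viability, T/C: luminescence viability as percent of DMSO vehicle wells = 100%.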

CC1(C)CCC(CN2CCN(c3ccc(C(=O)NS(=O)(=O)c4ccc(NCC5CCOCC5)c([N+](=O)[O-])c4)c(Oc4cnc5[nH]ccc5c4)c3)CC2)=C(c2ccc(Cl)cc2)C1 + NC1CCC(NC2CC2c2ccccc2)CC1
6.21 µM: IC50 (second compound 0.1 µM)
5.85 µM: IC50 (second compound 3.16 µM)
inactive: viability, T/C [1] 103% | viability, T/C [2] 94.7% | viability, T/C [3] 95.6% | viability, T/C [4] 101% | viability, T/C [5] 93.4% | viability, T/C [6] 19.2% | viability, T/C [7] 96.7% | viability, T/C [8] 95.1% | viability, T/C [9] 88.5% | viability, T/C [10] 100% | viability, T/C [11] 93.9% | viability, T/C [12] 18% | viability, T/C [13] 94.4% | viability, T/C [14] 99.1% | viability, T/C [15] 78.7% | viability, T/C [16] 93.3% | viability, T/C [17] 102% | viability, T/C [18] 16.2% | viability, T/C [19] 85.4% | viability, T/C [20] 84.3% | viability, T/C [21] 109% | viability, T/C [22] 101% | viability, T/C [23] 86.2% | viability, T/C [24] 18.3% | viability, T/C [25] 82.3% | viability, T/C [26] 78.4% | viability, T/C [27] 92.4% | viability, T/C [28] 72.2% | viability, T/C [29] 83.8% | viability, T/C [30] 16.2%
6.04 µM: IC50 (second compound 1 µM)
5.53 µM: IC50 (second compound 10 µM)
6.16 µM: IC50 (second compound 0.316 µM)

CC1COCCN1c1cc(C2(S(C)(=N)=O)CC2)nc(-c2ccnc3[nH]ccc23)n1 (stereo not given) + NC1CCC(NC2CC2c2ccccc2)CC1
5.47 µM: IC50 (second compound 0.1 µM)
3.14 µM: IC50 (second compound 1 µM)
2.79 µM: IC50 (second compound 3.16 µM)
inactive: viability, T/C [1] 98.1% | viability, T/C [2] 97.4% | viability, T/C [3] 104% | viability, T/C [4] 93.1% | viability, T/C [5] 57.6% | viability, T/C [6] 41.7% | viability, T/C [7] 97.4% | viability, T/C [8] 101% | viability, T/C [9] 102% | viability, T/C [10] 92.7% | viability, T/C [11] 60.6% | viability, T/C [12] 41.6% | viability, T/C [13] 91.1% | viability, T/C [14] 93.1% | viability, T/C [15] 90.7% | viability, T/C [16] 87.7% | viability, T/C [17] 49.8% | viability, T/C [18] 45.7% | viability, T/C [19] 86.2% | viability, T/C [20] 87.9% | viability, T/C [21] 93.1% | viability, T/C [22] 83.3% | viability, T/C [23] 46% | viability, T/C [24] 43.4% | viability, T/C [25] 86% | viability, T/C [26] 85.5% | viability, T/C [27] 89.8% | viability, T/C [28] 77.8% | viability, T/C [29] 42% | viability, T/C [30] 39.2%
6 µM: IC50 (second compound 0.316 µM)
2.44 µM: IC50 (second compound 10 µM)

CCN(c1cc(-c2ccc(CN3CCOCC3)cc2)cc(C(=O)NCc2c(C)cc(C)[nH]c2=O)c1C)C1CCOCC1 + NC1CCC(NC2CC2c2ccccc2)CC1
> 3 µM: IC50 (second compound 0.1 µM) | IC50 (second compound 0.316 µM) | IC50 (second compound 1 µM) | IC50 (second compound 3.16 µM) | IC50 (second compound 10 µM)
inactive: viability, T/C [31] 86.3% | viability, T/C [32] 103% | viability, T/C [33] 87% | viability, T/C [34] 86.7% | viability, T/C (second compound 0.1 µM, first compound 0.949 µM) 91.4% | viability, T/C (second compound 0.1 µM, first compound 3 µM) 82.9% | viability, T/C [35] 85.3% | viability, T/C [36] 95.9% | viability, T/C [37] 96.2% | viability, T/C [38] 91.4% | viability, T/C (second compound 0.316 µM, first compound 0.949 µM) 89.9% | viability, T/C (second compound 0.316 µM, first compound 3 µM) 91.1% | viability, T/C [39] 92.3% | viability, T/C [40] 92.7% | viability, T/C [41] 93.5% | viability, T/C [42] 88.3% | viability, T/C (second compound 1 µM, first compound 0.949 µM) 86.3% | viability, T/C (second compound 1 µM, first compound 3 µM) 91.8% | viability, T/C [43] 91.3% | viability, T/C [44] 90.5% | viability, T/C [45] 83.3% | viability, T/C [46] 87.6% | viability, T/C (second compound 3.16 µM, first compound 0.949 µM) 82% | viability, T/C (second compound 3.16 µM, first compound 3 µM) 95.9% | viability, T/C [47] 84.1% | viability, T/C [48] 82.6% | viability, T/C [49] 79.4% | viability, T/C [50] 79.5% | viability, T/C (second compound 10 µM, first compound 0.949 µM) 82.7% | viability, T/C (second compound 10 µM, first compound 3 µM) 83.7%

Nc1ncn(C2CC(O)C(CO)S2)c(=O)n1 (stereo not given) + NC1CCC(NC2CC2c2ccccc2)CC1
inactive: viability, T/C (second compound 0.1 µM, first compound 0.000949 µM) 99.6% | viability, T/C (second compound 0.1 µM, first compound 0.003 µM) 93.5% | viability, T/C [31] 85.8% | viability, T/C [32] 90.1% | viability, T/C [33] 93.8% | viability, T/C [34] 73% | viability, T/C (second compound 0.316 µM, first compound 0.000949 µM) 95.5% | viability, T/C (second compound 0.316 µM, first compound 0.003 µM) 89.3% | viability, T/C [35] 89% | viability, T/C [36] 89.5% | viability, T/C [37] 97.8% | viability, T/C [38] 80.1% | viability, T/C (second compound 1 µM, first compound 0.000949 µM) 87.1% | viability, T/C (second compound 1 µM, first compound 0.003 µM) 87.9% | viability, T/C [39] 86.4% | viability, T/C [40] 89.2% | viability, T/C [41] 86.6% | viability, T/C [42] 78.1% | viability, T/C (second compound 3.16 µM, first compound 0.000949 µM) 92.4% | viability, T/C (second compound 3.16 µM, first compound 0.003 µM) 91.7% | viability, T/C [43] 84% | viability, T/C [44] 92.8% | viability, T/C [45] 87% | viability, T/C [46] 73.4% | viability, T/C (second compound 10 µM, first compound 0.000949 µM) 89.5% | viability, T/C (second compound 10 µM, first compound 0.003 µM) 81.7% | viability, T/C [47] 82.9% | viability, T/C [48] 82.7% | viability, T/C [49] 82.1% | viability, T/C [50] 74.5%
> 0.3 µM: IC50 (second compound 0.1 µM) | IC50 (second compound 0.316 µM) | IC50 (second compound 1 µM) | IC50 (second compound 3.16 µM) | IC50 (second compound 10 µM)

O=C(C=Cn1cnc(-c2cc(C(F)(F)F)cc(C(F)(F)F)c2)n1)NNc1cnccn1 + NC1CCC(NC2CC2c2ccccc2)CC1
0.0404 µM: IC50 (second compound 3.16 µM)
inactive: viability, T/C (second compound 0.1 µM, first compound 0.00316 µM) 126% | viability, T/C (second compound 0.1 µM, first compound 0.01 µM) 106% | viability, T/C [1] 49.8% | viability, T/C [2] 44.6% | viability, T/C [3] 38.1% | viability, T/C [4] 28.6% | viability, T/C (second compound 0.316 µM, first compound 0.00316 µM) 142% | viability, T/C (second compound 0.316 µM, first compound 0.01 µM) 98.2% | viability, T/C [7] 51.2% | viability, T/C [8] 49.5% | viability, T/C [9] 39.5% | viability, T/C [10] 28.1% | viability, T/C (second compound 1 µM, first compound 0.00316 µM) 128% | viability, T/C (second compound 1 µM, first compound 0.01 µM) 116% | viability, T/C [13] 54.3% | viability, T/C [14] 46.6% | viability, T/C [15] 40% | viability, T/C [16] 28.4% | viability, T/C (second compound 3.16 µM, first compound 0.00316 µM) 110% | viability, T/C (second compound 3.16 µM, first compound 0.01 µM) 106% | viability, T/C [19] 52.8% | viability, T/C [20] 44.3% | viability, T/C [21] 40.9% | viability, T/C [22] 27.9% | viability, T/C (second compound 10 µM, first compound 0.00316 µM) 99.1% | viability, T/C (second compound 10 µM, first compound 0.01 µM) 101% | viability, T/C [25] 55.5% | viability, T/C [26] 43.1% | viability, T/C [27] 37.5% | viability, T/C [28] 31.9%
0.0451 µM: IC50 (second compound 10 µM)
0.0456 µM: IC50 (second compound 1 µM)
0.0346 µM: IC50 (second compound 0.1 µM)
0.0543 µM: IC50 (second compound 0.316 µM)
